SMILES strings stand for the structures.

A short description of data set [1]: Test 8: Fish Toxicity. The class given is in vivo. The note with it: carp, water; concentration at which 1/2 of the test fishes were killed within 48 hours; read-out: Fish Toxicity, TLm48. Here is the method: A water tank having a width of 60 cm, a length of 30 cm and a height of 40 cm was filled with water, and 10 yearling carps having a body length of about 5 cm were set free in the tank and adapted to the environment in the tank. A test compound was applied so that the concentration in water was 10, 1 or 0.1 ppm. After 48 hours, the numbers of killed and living carps were counted and the influences on the fishes were examined.

Data set [2] has as its system diamond back moth. Put plainly: Test 4: Effect on Diamond Back Moth. The class given is in vivo. The conditions noted are these: Plutella, third-instar larvae, 24 hours, read-out: Mortality (%). In a few lines:
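Compound formulated as an emulsifiable concentrate, diluted in water to 100 or 20 ppm and sprayed at 3 ml per cup onto cabbage leaves holding 10 third-instar larvae. Mortality counted after 24 hours; mean of three cups.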

Data set [3] relates to two-spotted spider mite. Kind of data set: Test 6: Effect on Two-Spotted Spider mite Adults. The class given is in vivo. The conditions noted are these: Tetranychus urticae; 100 ppm; adults; 24 hours; 25° C; read-out: Mortality (%). Here is the method:
To a mixture of 20 parts of the compound of the present invention and 20 parts of Sorpol SM-200 (registered tradename for the product supplied by Toho Chemical Industrial Co., Ltd.) was added 60 parts of xylol, and the mixture was suffciently blended. The obtained emulsifiable concentrate was diluted at a predetermined concentration with distilled water, and the obtained dilution was used.
A kidney bean leaf disc perforated with a cork borer (15 mm in diameter) was placed on water-impregnated absorbent cotton (2 cm×2 cm), and 10 adults of two-spotted spider mite were set free. A chemical dilution having a concentration of 100 ppm was applied with an applicator in an amount of 3 ml.
The leaf disc-placed absorbent cotton was placed in a thermostat chamber maintained at 25° C. After 24 hours, the number of killed adults was counted and the mortality was calculated. The test was made on three leaf discs and the average value was calculated.

Data set [4] has as its system tobacco cutworm. Kind of data set: Test 2: Tobacco Cutworm Larva Dipping Test, mortality after 24 hours. The class given is in vivo. The note with it: 24 hours. In a few lines:
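Second- and fifth-instar larvae dipped 5 s in a water dilution of an emulsifiable concentrate at 100 or 20 ppm, blotted, then held on artificial diet at 25° C. Dead and living larvae counted after 24 hours; mortality averaged over three cups.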

Data set [5] concerns tobacco cutworm. Kind of data set: Test 1: Effect on Tobacco Cutworm (leaf immersion), mortality after 24 hours. The format is in vivo. The conditions noted are these: second-instar larvae, 25° C. In a few lines: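 Second-instar tobacco cutworm larvae were kept at 25 °C on air-dried sweet-potato leaves that had been immersed for 10 s in test dilutions of 100 or 20 ppm from an emulsifiable concentrate. Mortality was scored at 24 h as the mean of three cups.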

For data set [6], the system named is sensitive green rice leafhopper (collected at Chigasaki). Put plainly: whole plant or invertebrate. The class given is in vivo. The conditions noted are these: Nephotettix cincticeps, sensitive female adults, 24 hours, read-out: Mortality (%), Green Rice Leafhopper Collected at Chigasaki. In a few lines:
(§1)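 Ten adult females per pot, either resistant (Nakagawara) or sensitive (Chigasaki), were caged on air-dried rice seedlings (2–3 leaves) sprayed at 3 ml/pot with 100 or 20 ppm of an emulsifiable concentrate dilution. Dead and living insects were counted after 24 hours; mortality is the mean of three pots.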

Data set [7] in a line: Test 9: Toxicity Test (acute oral toxicity, mice). The conditions noted are these: mouse, in vivo, po. Here is the method: A predetermined amount of a solution or suspension of a test compound in corn oil was orally administered to male mice having a body weight of 19 to 23 g (0.2 ml per 10 g of the body weight). After 7 days, the number of killed mice was counted and the influences on the mice were examined.

Data set [8] relates to resistant green rice leafhopper (collected at Nakagawara). Kind of data set: Test 3: Effect on Resistant Green Rice Leafhopper (collected at Nakagawara). The class given is in vivo, Nephotettix cincticeps Uhler (Green rice leafhopper). The conditions noted are these: Nephotettix cincticeps, 24 h, read-out: Mortality (%), Green Rice Leafhopper Collected at Nakagawara. In a few lines:
as §1

In data set [9] the test system is German cockroach. Put plainly: Test 7: Effect on German Cockroach. The conditions noted are these: Blattella germanica, male adults, agonized and killed after 24 hours, read-out: Mortality (%); for mortality at 10 mg/m2: 10 mg/m^2; for mortality at 50 mg/m2: 50 mg/m^2. The format is in vivo. In a few lines:
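Petri dish floors were treated with 50 or 10 mg/m2 of compound (diluted emulsifiable concentrate) and air-dried. Ten male adult German cockroaches per dish were held at 25° C. Agonized and dead insects were counted after 24 hours, averaging two dishes.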

Data set [10] deals with green peach aphid. Kind of data set: Test 5: Effect on Green Peach Aphid. The note with it: Myzus persicae; 100 ppm; mortality class; 24 hours; read-out: Insecticidal Activity. The format is in vivo. In a few lines:
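Eggplant seedlings with 3–4 leaves were infested with aphids and sprayed with a 100 ppm aqueous dilution of an emulsifiable concentrate, then kept in a glasshouse. Living insects were counted after 24 h. Mortality is averaged over three pots and graded A (>95%), B (80–95%), C (50–80%) or D (<50%).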

The mark [11] stands for this setting: fifth-instar larvae, read-out: Motality (%), Fifth-Instar Larvae.
Where [12] appears, read: second-instar larvae, read-out: Motality (%), Second-Instar Larvae.

On to `CCC(C)(COCc1cccc(Oc2ccc(Br)cc2)c1)c1ccc(Cl)cc1` (centres unmarked) [Compound 46], for which the LC50 at 48 h in data set [1] is > 10 µg/mL. In addition, the mortality at 20 ppm amounted to 100% in data set [2]; 60% in [4] (setting [11]); 80% in [4] (setting [12]); 100% in data set [5]; 65% in data set [6]; 80% in [8]. Also, the mortality at 100 ppm in data set [2] is 100%; in [3], 95%; in data set [4] (setting [11]) it was 80%; in data set [4] (setting [12]), 90%; in data set [5], 100%; in data set [6], 100%. The mortality at 100 ppm in data set [8] was found to be 100%. The LD50 at 168 h in data set [7] is > 500 mg/kg.
For the compound `Cc1ccc(C(C)(C)COCc2cccc(Oc3ccc(Br)cc3)c2)cc1` [Compound 33, 3-(4-Bromophenoxy)benzyl 2-(4-methylphenyl)-2-methylpropyl ether], in data set [1], the LC50 at 48 h is > 10 µg/mL. Also, the mortality at 20 ppm in [2] turned out to be 90%; in [5] it was 90%; in [6], 100%; in data set [8] it was 100%. The mortality at 100 ppm in data set [2] came out at 100%; in [3], 95%; in data set [5], 100%; in data set [6] it was 100%; in [8], 100%. In addition, in data set [7], the LD50 at 168 h is > 500 mg/kg.
Regarding `CC(C)Oc1ccc(C(C)(C)COCc2cccc(Oc3ccccc3)c2)cc1` [Compound 59, 3-Phenoxybenzyl 2-(4-isopropoxyphenyl)-2-methylpropyl ether], the mortality at 20 ppm in [2] came out at 85%; in [4] (setting [11]), 100%; in data set [4] (setting [12]) it was 100%; in data set [6], 100%; in data set [8] it was 100%. The mortality at 100 ppm in data set [2], in data set [3], in [4] (setting [11]), in [4] (setting [12]), in [6] and in [8] was 100% throughout. The mortality at 100 ppm in data set [10] was > 95%. Also, the mortality at 10 mg/m2 in data set [9] was determined as 100%. The mortality at 50 mg/m2 in data set [9] is 100%. In data set [7], the LD50 at 168 h was > 500 mg/kg.
Take `CC(C)(COCc1cccc(Oc2ccccc2)c1)c1ccc(OC(F)F)cc1` [Compound 18, 3-phenoxybenzyl 2-(4-difluoromethoxyphenyl)-2-methylpropyl ether]: the mortality at 20 ppm in data set [2], in data set [4] (setting [11]), in [4] (setting [12]), in data set [5], in data set [6] and in [8] was 100% in each case. The mortality at 100 ppm in data set [2], in data set [3], in data set [4] (setting [11]), in [4] (setting [12]), in data set [5] and in [6] was 100% each time. Also, the mortality at 100 ppm in data set [8] is 100%; in data set [10], > 95%. Besides, the mortality at 10 mg/m2 in [9] turned out to be 100%. In addition, the mortality at 50 mg/m2 in data set [9] worked out at 100%. Further, the LD50 at 168 h in data set [7] was > 500 mg/kg.
Consider `CC(C)(COCc1cccc(Oc2ccc(F)cc2)c1)c1ccc(F)cc1` [Compound 45], for which the LC50 at 48 h in [1] is > 1 µg/mL. Further, the mortality at 20 ppm in data set [2], in data set [5], in [6] and in data set [8] was 100% each time. Moreover, the mortality at 100 ppm in [2], in data set [3], in data set [5], in data set [6] and in data set [8] was 100% in each case. In data set [9], the mortality at 10 mg/m2 came to 100%. Further, in data set [9], the mortality at 50 mg/m2 amounted to 100%. Further, in data set [7], the LD50 at 168 h is > 500 mg/kg.
Turning to `CCCOc1ccc(C(C)(C)COCc2cccc(Oc3ccccc3)c2)cc1` [Compound 57, 3-Phenoxybenzyl 2-[4-(n-propoxy)phenyl]-2-methylpropyl ether], the mortality at 20 ppm stood at 75% in data set [2], 100% in data set [5], 100% in data set [6] and 100% in [8]. The mortality at 100 ppm was 100% in data set [2]; 90% in [3]; 100% in [5]; 100% in [6]; 100% in data set [8]; > 95% in [10]. In addition, the LD50 at 168 h in data set [7] was > 500 mg/kg.
Take `Cc1ccc(C(C)(C)COCc2cccc(Oc3ccccc3)c2)cc1` [Compound 47, 3-Phenoxybenzyl 2-(4-methylphenyl)-2-methylpropyl ether]: in [1], the LC50 at 48 h is > 10 µg/mL. For the same compound, the mortality at 100 ppm in data set [3], in [5], in [6] and in [8] was 100% in each case. Further, the mortality at 10 mg/m2 in [9] was found to be 90%. Further, the mortality at 50 mg/m2 in [9] was 100%. Also, the values for the mortality at 20 ppm in data set [5], in [6] and in data set [8] were 90%, 100% and 100%, respectively. Besides, the LD50 at 168 h in [7] is > 500 mg/kg.
Take `CC(C)(COCc1cccc(Oc2ccccc2)c1)c1ccccc1` [Compound 5, 3-Phenoxybenzyl 2-phenyl-2-methylpropyl ether]: the mortality at 100 ppm was 100% in [3], 100% in data set [6], 100% in data set [8] and > 95% in [10]. Also, the mortality at 10 mg/m2 in [9] worked out at 80%. Further, in data set [9], the mortality at 50 mg/m2 stood at 100%. Moreover, the mortality at 20 ppm in data set [6] and in data set [8] was 100% throughout. Besides, the LD50 at 168 h in data set [7] was > 500 mg/kg.
Turning to `CC(C)C(COCc1cccc(Oc2ccccc2)c1)c1ccc(Cl)cc1` (centres unmarked) [Comparative Compound (b), reference compound], the mortality at 20 ppm in data set [2] amounted to 10%. The mortality at 100 ppm in data set [2] was 30%; in [3], 20%; in data set [4] (setting [11]), 0%; in data set [4] (setting [12]), 0%; in data set [10], < 50%.
For `CC(C)COc1ccc(C(C)(C)COCc2cccc(Oc3ccccc3)c2)cc1` [Compound 64, 3-Phenoxybenzyl 2-(4-isobutyloxyphenyl)-2-methylpropyl ether], the mortality at 20 ppm in data set [2] amounted to 70%. Moreover, the mortality at 100 ppm is 100% in data set [2], 100% in data set [3] and > 95% in data set [10]. In addition, the LD50 at 168 h in [7] is > 500 mg/kg.

These data come from patent US4570005A, “Process for the preparation of 2-arylpropyl ether or thioether derivatives” (priority 1980, dated 1986).
